Measurements reported in patent US10668094B2, “Selective inhibitors of Alpha2-containing isoforms of Na,K-ATPase and use thereof for reduction of intraocular pressure” (Yeda Research and Development Co. Ltd., priority 2015, dated 2020).
Values joined by “and” are separate entries in the source; they are usually repeats but may differ in a detail not shown here. Equal values may be shown once. “Also recorded” adds a separate entry of the source. Read-outs that look alike come from different tables or passages of the source.

Columns and labels:
[1] = target: Na,K-ATPase in bovine ciliary NPE cells (Bos taurus, UniProt A2VDL6); assay: biochemical
[2] = target: Na,K-ATPase in bovine ciliary NPE cells (Bos taurus, UniProt Q08DA1); assay: biochemical
[3] = system: Na,K-ATPase in bovine ciliary NPE cells; assay: biochemical; settings: 1 site model; read-out: Ki, nM ± SEM
[4] = target: human Na,K-ATPase α1β1FXYD1 (Homo sapiens (Human), UniProt P05023); format: biochemical
tissues of the eye = assay: Histological examination of eye tissues after topical application for one week; format: in vivo, rabbit; settings: one drop of 1 mM daily for one week
Procedure: In order to assess whether topical application of DcB damaged the tissues of the eye including cornea, iris, lens, cilary body, retina, choroid and sclera, a histological examination was conducted after topical application, using one drop of 1 mM DcB daily for one week in one eye of each animal, with the other eye treated topically with one drop of PBS and serving as the control. Animals were sacrificed, eyes were removed, fixed in 10% neutral buffered formalin, processed routinely for histological examination, trimmed at 4 μm, and stained with hematoxylin and eosin.

[5] = target: human Na,K-ATPase α2β3FXYD1 (Homo sapiens (Human), UniProt P50993+P54709); assay: biochemical; format: biochemical
basal IOP in rabbits = assay: Basal IOP in rabbits, topical administration; format: in vivo, rabbit; settings: for effect on lowering basal IOP: one drop of 1 mM solution, other eye PBS
[6] = target: human Na,K-ATPase α2β1FXYD1 (Homo sapiens, UniProt P50993); format: biochemical
[7] = system: human Na,K-ATPase α2β1FXYD1; format: biochemical
[8] = system: 4AP-induced IOP in rabbits; format: in vivo, rabbit; settings: one drop topically prior to 4AP
[9] = target: human Na,K-ATPase α2β2FXYD1 (Homo sapiens (Human), UniProt P50993); format: biochemical; settings: for Ki: read-out: Ki in nM ± SEM α2β2
[10] = system: Na,K-ATPase isoforms α1, α2, α3; settings: cited from earlier work
[11] = rabbit with a basal IOP of 17 mm Hg
[12] = topical, test period of 4-5 hours

SMILES | Ki [3] [nM] | Ki for α1β1 lower than for digoxin [4] | Ki ([4]; read-out: Ki in nM ± SEM α1β1) [nM] | Ki for α2β3 lower than for digoxin [5] | Selectivity Ki ratio α1β1/α2β3 [5] | selectivity for α2β3 over α1β1 (Ki α1β1:α2β3 ratio) [5] [fold] | Ki ([5]; read-out: Ki in nM ± SEM α2β3) | effect on lowering basal IOP (basal IOP in rabbits) | reduction of basal IOP (basal IOP in rabbits; [11]) | reduction of basal IOP (basal IOP in rabbits; [12]) | Ki ([6]; read-out: Ki in nM ± SEM α2β1) [nM] | Selectivity Ki ratio α1β1/α2β1 [7] | concentration that prevents the 4AP-induced rise in IOP [8] [mM] | Selectivity Ki ratio α1β1/α2β2 [9] | Ki [9] [nM] | lower Ki values for α2 compared to α1 [10] | further results
CC1CN(C2CCC2)CCC(O[C@@H]2[C@H](C)O[C@@H](O[C@@H]3[C@H](C)O[C@@H](O[C@H]4CC[C@@]5(C)C(CCC6C5C[C@H](O)[C@]5(C)[C@@H](C7=CC(=O)OC7)CC[C@]65O)C4)C[C@@H]3O)C[C@@H]2O)O1 (stereo partly shown) [DcB] | 17.3 ± 2.5 | 2-3 fold | 135 ± 11 | about 10 fold | 33.6 | 33 | ~4 nM and 4 nM | notable effect | about 4 mm Hg | 20-25% | 8 ± 1.25 | 16.9 | 0.01 | 22.2 | 6 ± 1 | – | Ki [1]: 6.9 ± 2 nM; Ki ([1]; read-out: Ki α2, 2 sites model): 6.9 nM; Ki [2]: 151 ± 7.6 nM; Ki ([4]; read-out: Ki of α1β1FXYD1): 135 ± 11 nM; histological differences between treated and untreated eyes (tissues of the eye): No significant histological differences were observed; time after which IOP returned to the control value (basal IOP in rabbits; 1 mM DcB, 0.005% Latanoprost): 12 h; effect on basal IOP at higher concentration (basal IOP in rabbits; 2 mM): reduces the IOP similarly to 1 mM DcB; steady-state IOP as % of the unchanged control values (basal IOP in rabbits; after 3-8 hours): 75-80%; steady-state IOP lower than basal IOP (basal IOP in rabbits; after 3-8 hours, basal IOP 17-18 mmHg, 1 mM DcB, 0.005% Latanoprost): 3.5±0.15 mmHg; more effective than Latanoprost in reducing basal IOP (basal IOP in rabbits; relative to Latanoprost): about 25%; Ki ([6]; read-out: Ki of α2β1FXYD1): 8 ± 1.25 nM
CC1CN(CC2CC2)CCC(O[C@@H]2[C@H](C)O[C@@H](O[C@@H]3[C@H](C)O[C@@H](O[C@H]4CC[C@@]5(C)C(CCC6C5C[C@H](O)[C@]5(C)[C@@H](C7=CC(=O)OC7)CC[C@]65O)C4)C[C@@H]3O)C[C@@H]2O)O1 (stereo partly shown) [DMcP] | 7.9 ± 2.2 | 2-3 fold | 95.8 ± 13.7 | about 10 fold | 22.2 | 22 | 4.3 ± 0.6 nM | notable effect | about 4 mm Hg | 20-25% | 18.3 ± 1.6 | 5.2 | 0.01 | 12 | 8 ± 0.8 | – | Ki [5]: ~4 nM
C[C@H]1O[C@@H](O[C@H]2[C@@H](O)C[C@H](O[C@H]3[C@@H](O)C[C@H](O[C@H]4CC[C@@]5(C)[C@H](CC[C@@H]6[C@@H]5C[C@@H](O)[C@]5(C)[C@@H](C7=CC(=O)OC7)CC[C@]65O)C4)O[C@@H]3C)O[C@@H]2C)C[C@H](O)[C@@H]1O [Digoxin, digoxin, reference compound] | 91.7 ± 10.2 | – | – | – | – | – | – | lack of effect; also recorded: neither digoxin nor DiB had a significant effect | – | – | – | – | – | – | – | 3-4 fold | –
C[C@H]1O[C@@H](O[C@H]2[C@@H](O)C[C@H](O[C@H]3[C@@H](O)C[C@H](O[C@H]4CC[C@@]5(C)[C@H](CC[C@@H]6[C@@H]5CC[C@]5(C)[C@@H](C7=CC(=O)OC7)CC[C@]65O)C4)O[C@@H]3C)O[C@@H]2C)C[C@H](O)[C@@H]1O [Digitoxin, digitoxin] | – | – | – | – | – | – | – | – | – | – | – | – | – | – | – | 3-4 fold | –
